Experimental data published in US11883442B1, “Composition for treating irritable bowel syndrome” (KING FAISAL UNIVERSITY, priority 2023, dated 2024).

System: TNF-α
Experiment: cytokine (TNF-α) levels in the colonic homogenate, TNBS-induced colitis model
Assay type: in vivo, C57B16j mice
Settings: at a pH value of 5.2; FIG. 2B
Method: Colitis was induced in C57B16j mice by 2,4,6-trinitrobenzene sulfonic acid (TNBS). TNBS induction was made at 0 and 4 days. BA 10^8/mL BA, EF 10^9/mL EF, and calciferol at […] was administered as oral gavage on alternative days from day 0 to day 14.
A comparative evaluation of cytokine (TNF-α) levels in the colonic homogenate of different mice groups from the TNBS-induced colitis model was performed. TNF-α was quantified after 14 days of the start of the experiment. All data were collected from three individual experiments and pooled and expressed as mean ±SD (p<0.05). The effect of BA and EF loads on the pro-inflammatory marker (TNF-α) in TNBS-induced colitis mice is illustrated in FIGS. 1A-1B (values are expressed in pg/mL).
Disease index and bleeding indicated degree of recovery of the disease in the group treated with the composition. […] TNF-α was quantified after 14 days of the experiment. The values are expressed in pg/mL. All data were collected from three individual experiments and pooled and expressed as mean ±SD (p<0.05). *p<0.05 represents significance.

`C=C1CC[C@H](O)C/C1=C/C=C1\CCC[C@]2(C)[C@@H]([C@H](C)/C=C/[C@H](C)C(C)C)CC[C@@H]12` [calciferol] was tested, and the “most effective concentration of calciferol in the composition” value was 5 µM.
